For assay [1], the system named is colon cancer cells. Kind of assay: Apoptosis induction in combination with histone deacetylase inhibitor TSA. As to conditions: 48 h. It counts as cell-based. An excerpt: The compound may show activity to activate E2F1-induced apoptosis of at least about 15%, or at least about 20 or 25%, or about 15 to 25%, 15 to 30%, 15 to 20% or 20 to 25%. In this context, transcription factor E2F1, which is involved in the action of tumour suppressing proteins, was engineered with ER receptor ligand binding domain. (ER receptor is a nuclear hormone type of intracellular oestrogen receptor.) The compound may show activity to activate E2F1-induced apoptosis in the presence of 4-OHT of at least about 25% or of at least about 30, 40, 50, 60, 70 or 80%, or of about 25 to about 80%, or about 30 to 80, 50 to 80, 60 to 80 or 50 to 70%, e.g. about 25, 30, 35, 40, 45, 50, 55, 60, 65, 70, 75, 80 or 85%. 4-OHT is 4-hydroxytamoxifen, an anti-estrogenic metabolite of tamoxifen with a much higher affinity for oestrogen receptors than tamoxifen itself. The compound may show apoptosis induction in colon cancer cells with histone deacetylase inhibitor TSA (Trichostatin A) of at least about 40%, or at least about 50, 60, 70 or 80%, or about 40 to about 90%, or about 50 to 90, 70 to 90, 40 to 60 or 50 to 80%, e.g. about 40, 50, 60, 70, 80 or 90%. It may be capable of inhibiting the function of Polycomb repressive complex 2 (PRC2) proteins. In this context, activity % refers to the percentage of cell undergoing apoptosis (death) under the combination drug treatment of DZNep analogue with TSA for 48 h.
The second assay was designed to measure synergistic effect of new compounds with histone deacetylase inhibitor TSA for apoptosis induction in colon cancer cells. DZNep is known to synergy with TSA to induce strong apoptosis in colon cancer cells ((Jiang et al., Cancer Cell, 13, 529-541, 2008). Again the new compounds are compared with DZNep in the context of inducing apoptosis with TSA. Assays were conducted in accordance with Jiang et al (above).

Assay [2] deals with HCT115 ER-E2F1 cells. Kind of assay: E2F1-induced apoptosis assay (ER-E2F1 activated by 4-OHT), FACS subG1. It counts as cell-based. The conditions noted are these: for E2F1 Induced apoptosis % Apoptosis: without 4-OHT (value before the parentheses), 'No activity'; for E2F1 Induced apoptosis (+4-OHT) % Apoptosis: with 4-OHT (value in parentheses). The source says: Two assays were used to measure the compound's activity in induce apoptosis. The first assay measures the activity of compound to activate E2F1-induced apoptosis. In this assay, transcription factor E2F1 was engineered with ER receptor ligand binding domain. Addition of 4-OHT will be able to activate ER-E2F1 complex activity.
Fluorescence activated cell sorting (FACS) also known as flow cytometry is the technique used to determine apoptosis in this set of experiments. Apoptosis is indicated by cell populations with DNA content in the subG1 range. To determine the activity of these compounds, the inventors used HCT115 ER-E2F1 cells to determine the activity of the compound in inducing E2F1-dependent apoptosis. In this assay, addition of 4-OHT ligand will activate E2F1. DZNep has been show previously to activate OHT-induced apoptosis in this system.

The values that follow come from US20110237606A1, “3-Deazaneplanocin Derivatives” (AGENCY OF SCIENCE, TECHNOLOGY AND RESEARCH, priority 2008, published 2011).

Structures are written as SMILES. Counter-ions that a name gives are not always drawn.

On to `Nc1ncnc2c1ncn2C1C=CCC1` (racemic) [Compound 29, (±)-9-(cyclopent-2-enyl)-9H-purin-6-amine], for which the “Combination with HDAC inhibitor TSA % Apoptosis” value in assay [1] is “No activity”. For the same compound, the “E2F1 Induced apoptosis % Apoptosis” value in assay [2] is listed as “No activity”. `CC1(C)O[C@H]2[C@H](n3cnc4c(N)ncnc43)CC[C@H]2O1` (racemic) [Compound 30, (±)-9-(2,2-dimethyl-tetrahydro-3aH-cyclopenta[d][1,3]dioxol-4-yl)-9H-purin-6-amine]: the “Combination with HDAC inhibitor TSA % Apoptosis” value in assay [1] is reported as “No activity”. Further, the “E2F1 Induced apoptosis % Apoptosis” value in assay [2] is “No activity”. Take `CC1(C)O[C@H]2[C@H](CC[C@H]2n2cnc3c(N)ncnc32)O1` (racemic) [Compound 31, (±)-9-(2,2-dimethyl-tetrahydro-3aH-cyclopenta[d][1,3]dioxol-4-yl)-9H-purin-6-amine]: the “Combination with HDAC inhibitor TSA % Apoptosis” value in assay [1] is on record as “No activity”. Further, the “E2F1 Induced apoptosis % Apoptosis” value in assay [2] was “No activity”. As for `Nc1ncnc2c1ncn2[C@@H]1CC[C@@H](O)[C@H]1O` (racemic) [Compound 32, (±)-(1R,2S,3R)-3-(6-Amino-9H-purin-9-yl)-1,2-cyclopentanediol hydrochloride], the “E2F1 Induced apoptosis (+4-OHT) % Apoptosis” value in assay [2] was 44%. On to `Nc1ncnc2c1ncn2[C@@H]1CC[C@H](O)[C@@H]1O` (racemic) [Compound 33, (±)-(1R,2S,3S)-3-(6-Amino-9H-purin-9-yl)-1,2-cyclopentanediol hydrochloride], for which the “Combination with HDAC inhibitor TSA % Apoptosis” value in assay [1] is “No activity”. For the same compound, the “E2F1 Induced apoptosis % Apoptosis” value in assay [2] is listed as “No activity”.

For the compound `CC1(C)O[C@@H]2[C@H](O1)C(COC(c1ccccc1)(c1ccccc1)c1ccccc1)=C[C@H]2n1cnc2c(Cl)nccc21` [Compound 1], in assay [2], the “E2F1 Induced apoptosis % Apoptosis” value is “No activity”. Regarding `CC1(C)O[C@@H]2[C@H](O1)C(COC(c1ccccc1)(c1ccccc1)c1ccccc1)=C[C@H]2n1cnc2cncc(Cl)c21` [Compound 2], in assay [2], the “E2F1 Induced apoptosis % Apoptosis” value was “No activity”.

As to `OCC1=C[C@@H](n2cnc3c(Cl)nccc32)[C@H](O)[C@@H]1O` [Compound 3], the “Combination with HDAC inhibitor TSA % Apoptosis” value in assay [1] is “No activity”. Moreover, the “E2F1 Induced apoptosis % Apoptosis” value in assay [2] is “No activity”. With `OCC1=C[C@@H](n2cnc3ccnc(Cl)c32)[C@H](O)[C@@H]1O` [Compound 4], the “Combination with HDAC inhibitor TSA % Apoptosis” value in assay [1] is “No activity”. Moreover, the “E2F1 Induced apoptosis % Apoptosis” value in assay [2] is given as “No activity”.

For the compound `COC(=O)c1cn([C@@H]2C=C(CO)[C@@H](O)[C@H]2O)nn1` [Compound 5], the “Combination with HDAC inhibitor TSA % Apoptosis” value in assay [1] is listed as “No activity”. The “E2F1 Induced apoptosis % Apoptosis” value in assay [2] was “No activity”. Consider `COC(=O)c1cn([C@@H]2C=C(CO)[C@@H](O)[C@H]2O)cn1` [Compound 6], for which the “Combination with HDAC inhibitor TSA % Apoptosis” value in assay [1] is given as “No activity”. Moreover, in assay [2], the “E2F1 Induced apoptosis % Apoptosis” value is “No activity”. With `COC(=O)c1ncn([C@@H]2C=C(CO)[C@@H](O)[C@H]2O)n1` [Compound 7], in assay [1], the “Combination with HDAC inhibitor TSA % Apoptosis” value is on record as “No activity”. In addition, in assay [2], the “E2F1 Induced apoptosis % Apoptosis” value is listed as “No activity”. `O=C(c1ccccc1)n1c(=O)ccn([C@@H]2C=C(CO)[C@@H](O)[C@H]2O)c1=O` [Compound 8]: the “Combination with HDAC inhibitor TSA % Apoptosis” value in assay [1] is “No activity”. Besides, the “E2F1 Induced apoptosis % Apoptosis” value in assay [2] is recorded as “No activity”. As to `Cc1cn([C@@H]2C=C(CO)[C@@H](O)[C@H]2O)c(=O)n(C(=O)c2ccccc2)c1=O` [Compound 9], the “Combination with HDAC inhibitor TSA % Apoptosis” value in assay [1] is “No activity”. The “E2F1 Induced apoptosis % Apoptosis” value in assay [2] is recorded as “No activity”. As to `Cc1cn([C@@H]2C=C(CO)[C@@H](O)[C@H]2O)c(=O)[nH]c1=O` [Compound 10], in assay [1], the “Combination with HDAC inhibitor TSA % Apoptosis” value is “No activity”. Besides, the “E2F1 Induced apoptosis % Apoptosis” value in assay [2] was “No activity”.

Take `O=c1[nH]cnc2c1ncn2[C@@H]1C=C(CO)[C@@H](O)[C@H]1O` [Compound 11]: the “Combination with HDAC inhibitor TSA % Apoptosis” value in assay [1] is reported as “No activity”. Besides, in assay [2], the “E2F1 Induced apoptosis % Apoptosis” value is “No activity”.

Take `O=c1ccn([C@@H]2C=C(CO)[C@@H](O)[C@H]2O)c(=O)[nH]1` [Compound 12]: the “Combination with HDAC inhibitor TSA % Apoptosis” value in assay [1] is listed as “No activity”. In addition, the “E2F1 Induced apoptosis % Apoptosis” value in assay [2] is reported as “No activity”. As to `NC(=O)c1ncn([C@@H]2C=C(CO)[C@@H](O)[C@H]2O)n1` [Compound 13], the “Combination with HDAC inhibitor TSA % Apoptosis” value in assay [1] is recorded as “No activity”. For the same compound, in assay [2], the “E2F1 Induced apoptosis % Apoptosis” value is on record as “No activity”. Turning to `NC(=O)c1cn([C@@H]2C=C(CO)[C@@H](O)[C@H]2O)cn1` [Compound 14], the “Combination with HDAC inhibitor TSA % Apoptosis” value in assay [1] is given as “No activity”. The “E2F1 Induced apoptosis % Apoptosis” value in assay [2] is “No activity”. On to `CC1(C)O[C@@H]2[C@H](O1)C(COC(c1ccccc1)(c1ccccc1)c1ccccc1)=C[C@@H]2O` [Compound 15], for which, in assay [1], the “Combination with HDAC inhibitor TSA % Apoptosis” value is “No activity”. The “E2F1 Induced apoptosis % Apoptosis” value in assay [2] is recorded as “No activity”. For `CC1(C)O[C@@H]2[C@H](O1)C(COC(c1ccccc1)(c1ccccc1)c1ccccc1)=C[C@H]2n1cnc2c(N)ncnc21` [Compound 16], the “Combination with HDAC inhibitor TSA % Apoptosis” value in assay [1] is on record as “No activity”. Besides, the “E2F1 Induced apoptosis % Apoptosis” value in assay [2] is reported as “No activity”. In the case of `COC(=O)c1cn([C@@H]2C=C(COC(c3ccccc3)(c3ccccc3)c3ccccc3)[C@H]3OC(C)(C)O[C@H]32)cn1` [Compound 17], the “Combination with HDAC inhibitor TSA % Apoptosis” value in assay [1] is on record as “No activity”. The “E2F1 Induced apoptosis % Apoptosis” value in assay [2] was “No activity”. On to `Cc1cn([C@@H]2C=C(COC(c3ccccc3)(c3ccccc3)c3ccccc3)[C@H]3OC(C)(C)O[C@H]32)c(=O)n(C(=O)c2ccccc2)c1=O` [Compound 18], for which, in assay [1], the “Combination with HDAC inhibitor TSA % Apoptosis” value was “No activity”. The “E2F1 Induced apoptosis % Apoptosis” value in assay [2] was “No activity”.

As to `CC1(C)O[C@@H]2[C@H](O1)C(COC(c1ccccc1)(c1ccccc1)c1ccccc1)=C[C@H]2n1ccc(=O)n(C(=O)c2ccccc2)c1=O` [Compound 19], the “Combination with HDAC inhibitor TSA % Apoptosis” value in assay [1] is “No activity”. In assay [2], the “E2F1 Induced apoptosis % Apoptosis” value was “No activity”. For the compound `CC1(C)O[C@@H]2[C@H](O1)C(COC(c1ccccc1)(c1ccccc1)c1ccccc1)=C[C@H]2n1cnc2c(Cl)ncnc21` [Compound 20], the “Combination with HDAC inhibitor TSA % Apoptosis” value in assay [1] is on record as “No activity”. Also, the “E2F1 Induced apoptosis % Apoptosis” value in assay [2] is on record as “No activity”. On to `Nc1nccc2c1ncn2[C@@H]1C=C(CO)[C@@H](O)[C@H]1O` [Compound 22, 3-Deazaneplanocin A, reference compound], for which the “E2F1 Induced apoptosis (+4-OHT) % Apoptosis” value in assay [2] turned out to be 65%. Take `CC1(C)O[C@@H]2[C@H](O1)C(CO)=C[C@H]2n1cnc2c(N)nccc21` [Compound 23, 2′,3′-O-Isopropylidene-3-deazaneplanocin A]: the “Combination with HDAC inhibitor TSA % Apoptosis” value in assay [1] is given as “No activity”. Besides, the “E2F1 Induced apoptosis (+4-OHT) % Apoptosis” value in assay [2] came out at 25%.

On to `CC1=C[C@@H](n2cnc3c(N)ncnc32)[C@H](O)[C@@H]1O` [Compound 26, (1S,2R,5R)-5-(6-amino-9H-purin-9-yl)-3-methylcyclopent-3-ene-1,2-diol hydrochloride], for which the “E2F1 Induced apoptosis (+4-OHT) % Apoptosis” value in assay [2] came to 40%. On to `Nc1ncnc2c1ncn2[C@@H]1C=C(COC(=O)c2ccccc2)[C@@H](O)[C@H]1O` [Compound 27, ((3R,4S,5R)-3-(6-amino-9H-purin-9-yl)-4,5-dihydroxycyclopent-1-enyl)methyl benzoate hydrochloride], for which, in assay [2], the “E2F1 Induced apoptosis (+4-OHT) % Apoptosis” value came to 30%.
